In ChEMBL document CHEMBL3297717, “Synthesis and potent ionophoric activity of a squaramide-linked bis(choloyl) conjugate” (Bioorg Med Chem Lett, 2014):
Activity calls are given as the source filed them. The calls are words filed in the database; no cut-off is given here.

Experiments:
[1] = Ionophoric activity across egg-yolk L-alpha-phosphatidylcholine-based liposomal membrane assessed as induction of pH discharge in membrane at 1 to 5 mol% after 21 mins by pyramine dye-based fluorescence assay
[2] = Ionophoric activity across egg-yolk L-alpha-phosphatidylcholine-based liposomal membrane assessed as induction of pH discharge in membrane after 21 mins by pyramine dye-based fluorescence assay
[3] = Ionophoric activity across egg-yolk L-alpha-phosphatidylcholine-based liposomal membrane assessed as induction of pH discharge in membrane by measuring initial rate constant after 21 mins by Hill plot analysis
[4] = Ionophoric activity across egg-yolk L-alpha-phosphatidylcholine-based liposomal membrane assessed as chloride efflux after 5 mins
[5] = Ionophoric activity across egg-yolk L-alpha-phosphatidylcholine-based liposomal membrane dispersed in HEPES buffer containing Na2SO4 assessed as chloride efflux at 3 mol% after 5 mins
[6] = Ionophoric activity across egg-yolk L-alpha-phosphatidylcholine-based liposomal membrane assessed as induction of pH discharge in membrane at 3 mol% after 20 mins by pyramine dye-based fluorescence assay in presence of LiCl
[7] = Ionophoric activity across egg-yolk L-alpha-phosphatidylcholine-based liposomal membrane assessed as induction of pH discharge in membrane at 3 mol% after 20 mins by pyramine dye-based fluorescence assay in presence of NaNO3
[8] = Ionophoric activity across egg-yolk L-alpha-phosphatidylcholine-based liposomal membrane assessed as induction of pH discharge in membrane at 3 mol% after 20 mins by pyramine dye-based fluorescence assay in presence of NaCl
[9] = Ionophoric activity across egg-yolk L-alpha-phosphatidylcholine-based liposomal membrane assessed as induction of pH discharge in membrane at 3 mol% after 20 mins by pyramine dye-based fluorescence assay in presence of KCl
[10] = Ionophoric activity across egg-yolk L-alpha-phosphatidylcholine-based liposomal membrane assessed as induction of pH discharge in membrane at 3 mol% after 20 mins by pyramine dye-based fluorescence assay in presence of RbCl
[11] = Ionophoric activity across egg-yolk L-alpha-phosphatidylcholine-based liposomal membrane assessed as induction of pH discharge in membrane at 3 mol% after 20 mins by pyramine dye-based fluorescence assay in presence of CsCl
[12] = Ionophoric activity across egg-yolk L-alpha-phosphatidylcholine-based liposomal membrane assessed as induction of pH discharge in membrane at 3 mol% after 20 mins by pyramine dye-based fluorescence assay in presence of NaI
[13] = Ionophoric activity across egg-yolk L-alpha-phosphatidylcholine-based liposomal membrane assessed as induction of pH discharge in membrane at 3 mol% after 20 mins by pyramine dye-based fluorescence assay in presence of NaBr

Row | Activity [1] | EC50 [2] [mol%] | Kin [3] | Activity [4] | Activity [5] | Activity [6] | Activity [7] | Activity [8] | Activity [9] | Activity [10] | Activity [11] | Activity [12] | Activity [13] | SMILES
1 | Active | 3.82 | 0.6 min⁻¹ | Dose-dependent effect | Active | Active | inactive | Active | Active | Active | Active | inactive | inactive | C[C@H](CCC(=O)Nc1ccc(Nc2c(Nc3ccc(NC(=O)CC[C@@H](C)[C@H]4CC[C@H]5[C@@H]6[C@H](O)C[C@@H]7C[C@H](O)CC[C@]7(C)[C@H]6C[C@H](O)[C@]45C)cc3)c(=O)c2=O)cc1)[C@H]1CC[C@H]2[C@@H]3[C@H](O)C[C@@H]4C[C@H](O)CC[C@]4(C)[C@H]3C[C@H](O)[C@]12C
2 | – | – | 5.52 ×10⁻² /min | – | – | – | – | – | – | – | – | – | – | C[C@H](CCC(=O)N[C@@H](CCCCN)C(=O)NCc1ccc(CNC(=O)[C@H](CCCCN)NC(=O)CC[C@@H](C)[C@H]2CC[C@H]3[C@@H]4[C@H](O)C[C@@H]5C[C@H](O)CC[C@]5(C)[C@H]4C[C@H](O)[C@]23C)cc1)[C@H]1CC[C@H]2[C@@H]3[C@H](O)C[C@@H]4C[C@H](O)CC[C@]4(C)[C@H]3C[C@H](O)[C@]12C
3 | – | – | 2.23 ×10⁻² /min | – | – | – | – | – | – | – | – | – | – | C[C@H](CCC(=O)NCc1ccc(CNC(=O)CC[C@@H](C)[C@H]2CC[C@H]3[C@@H]4[C@H](O)C[C@@H]5C[C@H](O)CC[C@]5(C)[C@H]4C[C@H](O)[C@]23C)cc1)[C@H]1CC[C@H]2[C@@H]3[C@H](O)C[C@@H]4C[C@H](O)CC[C@]4(C)[C@H]3C[C@H](O)[C@]12C
